Measurements from patent US20090047246A1, “NOVEL INHIBITORS OF HEPATITIS C VIRUS REPLICATION” (InterMune, Inc., priority 2007, published 2009).

Target: T1, HCV NS3 helicase (Hepatitis C virus genotype 1b, UniProt P26663)
T1 construct: full-length NS3 (1-631), purified at Array BioPharma
Experiment: HCV Helicase Prompt FRET Assay (Example A)
Assay type: biochemical
Conditions: HCV NS3 helicase; tables do not say whether Example A or Example B assay; read-out: IC50 Activity
Procedure, shortened: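 Initial unwinding rates, monitored as FAM fluorescence gain (ex 485, em 535) over ~30 min at room temperature, gave IC50 via 4- or 5-parameter logistic fits. Reactions: 50 nM quenched duplex, 250 nM capture strand, 300 μM ATP, 5–6 nM NS3 1-631 after 5 min compound preincubation, MOPS pH 7.0 buffer, 2% DMSO.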

T1 sequence (P26663 1027-1657): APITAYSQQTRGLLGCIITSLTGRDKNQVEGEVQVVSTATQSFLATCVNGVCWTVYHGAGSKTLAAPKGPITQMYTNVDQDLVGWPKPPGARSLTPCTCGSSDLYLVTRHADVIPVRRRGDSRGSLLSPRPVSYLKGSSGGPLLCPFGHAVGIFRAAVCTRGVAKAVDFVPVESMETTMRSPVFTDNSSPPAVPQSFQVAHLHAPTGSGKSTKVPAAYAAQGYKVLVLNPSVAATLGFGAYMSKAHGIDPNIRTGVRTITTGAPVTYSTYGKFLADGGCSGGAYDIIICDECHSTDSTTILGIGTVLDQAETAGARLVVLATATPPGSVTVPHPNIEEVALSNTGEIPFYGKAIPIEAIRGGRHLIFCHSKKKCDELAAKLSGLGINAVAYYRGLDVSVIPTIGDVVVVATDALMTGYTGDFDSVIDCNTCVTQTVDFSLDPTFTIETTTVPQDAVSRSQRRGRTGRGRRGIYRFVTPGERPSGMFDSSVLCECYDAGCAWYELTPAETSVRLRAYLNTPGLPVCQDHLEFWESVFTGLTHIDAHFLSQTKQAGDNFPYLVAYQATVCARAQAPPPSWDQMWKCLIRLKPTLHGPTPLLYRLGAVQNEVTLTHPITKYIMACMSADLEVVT

Row | IC50 [µM] | Compound
1 | 10 to 50 | CC(=O)c1c(CC(=O)O)c2ccccc2n1-c1ccc(N(C)Cc2ccccc2)cc1 [Example 737]
2 | 10 to 50 | CN(Cc1ccccc1)c1ccc(-n2c(C(=O)c3ccc(-c4ccc(Cl)c(Cl)c4)cc3)c(CC(=O)O)c3ccccc32)cc1 [Example 738]
3 | 10 to 50 | O=C(O)Cc1c(Cc2ccc(-c3ccccc3Cl)cc2)[nH]c2ccc(Br)cc12 [Example 739]
4 | 10 to 50 | O=C(O)Cc1cn(Cc2csc3ccc(Cl)cc23)c2cc(-c3ccnc(Cl)c3)ccc12 [Example 740]
5 | 10 to 50 | OC1CCCN(c2ccc3ccn(Cc4csc5ccc(Cl)cc45)c3c2)C1 (stereo not shown) [Example 742]
6 | 10 to 50 | O=C(O)Cc1cn(Cc2csc3ccc(Cl)cc23)c2cc(-c3cccnc3)ccc12 [Example 743]
7 | 10 to 50 | O=C(O)Cc1cn(Cc2csc3ccc(Cl)cc23)c2cc(N3CCCC(O)C3)ccc12 (stereo not shown) [Example 746]
8 | 10 to 50 | Nc1cc(-c2ccc3c(CC(=O)O)cn(Cc4csc5ccc(Cl)cc45)c3c2)ccn1 [Example 747]

Row | Compound | IC50 [µM]
9 | O=C(O)Cc1cn(Cc2csc3ccc(Cl)cc23)c2cc(-c3ccnc(NCCO)c3)ccc12 [Example 741] | < 10
10 | O=C(O)C(=O)c1cn(Cc2csc3ccc(Cl)cc23)c2cc(N3CCCC(O)C3)ccc12 (stereo not shown) [Example 744] | < 10

Same assay, conditions: Table 34, compounds made using Schemes 51-52; read-out: IC50 Activity

Row | Compound | IC50 [µM]
11 | Cc1cc([N+](=O)[O-])ccc1-n1cc(C(NC(=O)C2CCCN2C(=O)OC(C)(C)C)C(=O)O)c2ccccc21 (stereo not shown) [Example 671] | 10 to 50
12 | Cc1cc([N+](=O)[O-])ccc1-n1cc(C(NC(=O)C2CCCN2)C(=O)O)c2ccccc21 (stereo not shown) [Example 672] | > 50
13 | Cc1cc([N+](=O)[O-])ccc1-n1cc(C(NC(=O)C2CCN(C(=O)OC(C)(C)C)CC2)C(=O)O)c2ccccc21 (stereo not shown) [Example 673] | 10 to 50
14 | Cc1cc([N+](=O)[O-])ccc1-n1cc(C(NC(=O)C2CCNCC2)C(=O)O)c2ccccc21 (stereo not shown) [Example 674] | > 50
15 | Cn1cc(CC(=O)O)c2ccc(-c3cc(N)cc(N)c3)cc21 [Example 675] | > 50
16 | Nc1cc(N)cc(-c2ccc3c(CC(=O)O)cn(Cc4ccccc4)c3c2)c1 [Example 676] | 10 to 50
17 | CC(C)c1ccc(Cn2cc(CC(=O)NO)c3ccccc32)cc1 [Example 677] | 10 to 50
18 | O=C(O)Cc1cn(Cc2csc3ccccc23)c2ccc(Br)cc12 [Example 678] | 10 to 50
19 | Nc1cc(N)cc(-c2ccc3c(CC(=O)NOCc4ccccc4)cn(Cc4csc5ccc(Cl)cc45)c3c2)c1 [Example 680] | < 10
20 | CC(C)c1ccc(Cn2cc(C(Cc3ccccc3)C(=O)NO)c3cc(Br)ccc32)cc1 (stereo not shown) [Example 684] | < 10
21 | CC(C)c1ccc(CC(C(=O)O)c2cn(Cc3ccc(C(C)C)cc3)c3ccc(Br)cc23)cc1 (stereo not shown) [Example 685] | < 10
22 | CC(C)c1ccc(Cn2cc(C(Cc3ccccc3)C(=O)NS(=O)(=O)C3CC3)c3cc(Br)ccc32)cc1 (stereo not shown) [Example 686] | < 10
23 | Nc1cc(-c2ccc3c(CC(=O)NS(=O)(=O)C4CC4)cn(Cc4csc5ccc(Cl)cc45)c3c2)cc([N+](=O)[O-])c1 [Example 687] | < 10
24 | Nc1cc(-c2ccc3c(CC(=O)NOCc4ccccc4)cn(Cc4csc5ccc(Cl)cc45)c3c2)cc([N+](=O)[O-])c1 [Example 689] | > 50
25 | Nc1cc(-c2ccc3c(CC(=O)NOC4CCCCO4)cn(Cc4csc5ccc(Cl)cc45)c3c2)cc([N+](=O)[O-])c1 (stereo not shown) [Example 690] | > 50
26 | COC(=O)C(=O)c1cn(Cc2csc3ccc(Cl)cc23)c2cc(Br)ccc12 [Example 693] | > 50
27 | OCCc1cn(Cc2csc3ccc(Cl)cc23)c2cc(Br)ccc12 [Example 694] | > 50
28 | CC(=O)OC1CCCN(c2ccc3ccn(Cc4csc5ccc(Cl)cc45)c3c2)C1 (stereo not shown) [Example 695] | 10 to 50
29 | COC(=O)C(=O)c1cn(Cc2csc3ccc(Cl)cc23)c2cc(N3CCCC(OC(C)=O)C3)ccc12 (stereo not shown) [Example 696] | 10 to 50
30 | COC(=O)Cc1cn(Cc2csc3ccc(Cl)cc23)c2cc(N3CCCC(OC(C)=O)C3)ccc12 (stereo not shown) [Example 697] | > 50

Other lines, results leading:

Row | IC50 [µM] | Compound
31 | < 10 | Nc1cc(N)cc(-c2ccc3c(CC(=O)O)cn(Cc4csc5ccccc45)c3c2)c1 [Example 679]
32 | 10 to 50 | CC(C)(C)ONC(=O)Cc1cn(Cc2csc3ccc(Cl)cc23)c2cc(-c3cc(N)cc(N)c3)ccc12 [Example 683]
33 | < 10 | Nc1cc(N)cc(-c2ccc3c(CC(=O)NS(=O)(=O)C4CC4)cn(Cc4csc5ccc(Cl)cc45)c3c2)c1 [Example 688]
34 | 10 to 50 | Nc1cc(-c2ccc3c(CC(=O)NO)cn(Cc4csc5ccc(Cl)cc45)c3c2)cc([N+](=O)[O-])c1 [Example 691]
35 | 10 to 50 | Nc1cc(N)cc(-c2ccc3c(CC(=O)NO)cn(Cc4csc5ccc(Cl)cc45)c3c2)c1 [Example 692]

Same assay, conditions: Table 35, compounds made using Scheme 53; read-out: IC50 Activity

Row | Compound | IC50 [µM]
36 | Cc1ccc2c(Cn3cc(CC(=O)O)c4ccc(-c5cc(N)cc(N)c5)cc43)cccc2n1 [Example 704] | > 50
37 | Cc1nn(-c2ccccc2)nc1Cn1cc(CC(=O)O)c2ccc(-c3cc(N)cc(N)c3)cc21 [Example 706] | 10 to 50
38 | Nc1cc(N)cc(-c2ccc3c(CC(=O)O)cn(Cc4cccc(-c5cccc(Cl)c5)c4)c3c2)c1 [Example 709] | 10 to 50

More lines, now with the values ahead:

Row | IC50 [µM] | Compound
39 | 10 to 50 | Nc1cc(N)cc(-c2ccc3c(CC(=O)O)cn(Cc4csc5ccc(N)cc45)c3c2)c1 [Example 702]
40 | 10 to 50 | N#Cc1ccc2scc(Cn3cc(CC(=O)O)c4ccc(-c5cc(N)cc(N)c5)cc43)c2c1 [Example 703]
41 | < 10 | Nc1cc(N)cc(-c2ccc3c(CC(=O)O)cn(Cc4csc5ccc(F)cc45)c3c2)c1 [Example 705]
42 | 10 to 50 | Nc1cc(N)cc(-c2ccc3c(CC(=O)O)cn(Cc4cccc5sc(O)nc45)c3c2)c1 [Example 708]
43 | < 10 | Nc1cc(N)cc(-c2ccc3c(CC(=O)O)cn(Cc4cc5cc(Cl)ccc5s4)c3c2)c1 [Example 710]
44 | 10 to 50 | Nc1cc(N)cc(-c2ccc3c(CC(=O)O)cn(Cc4csc5ccc(Br)cc45)c3c2)c1 [Example 734]

Same assay, conditions: Table 36, compounds made using Scheme 54; read-out: IC50 Activity

Row | Compound | IC50 [µM]
45 | CCOC(=O)Cc1cn(Cc2c(-c3ccccc3)sc3ccccc23)c2cc(-c3cc([N+](=O)[O-])cc([N+](=O)[O-])c3)ccc12 [Example 711] | 10 to 50
46 | CCOC(=O)Cc1cn(Cc2c(-c3ccccc3)sc3ccccc23)c2cc(-c3cc(N)cc(N)c3)ccc12 [Example 712] | < 10
47 | Nc1cc(N)cc(-c2ccc3c(CC(=O)O)cn(Cc4c(-c5ccccc5)sc5ccccc45)c3c2)c1 [Example 713] | < 10
48 | CCOC(=O)Cc1cn(Cc2c(-c3cccc(Cl)c3)sc3ccccc23)c2cc(-c3cc([N+](=O)[O-])cc([N+](=O)[O-])c3)ccc12 [Example 714] | 10 to 50
49 | Nc1cc(N)cc(-c2ccc3c(CC(=O)O)cn(Cc4c(-c5cccc(Cl)c5)sc5ccccc45)c3c2)c1 [Example 715] | < 10
50 | CCOC(=O)Cc1cn(Cc2c(CC)sc3ccc(Cl)cc23)c2cc(-c3cc([N+](=O)[O-])cc([N+](=O)[O-])c3)ccc12 [Example 720] | > 50
51 | Nc1cc(N)cc(-c2ccc3c(CC(=O)O)cn(Cc4nc5ccccc5s4)c3c2)c1 [Example 735] | > 50

Other lines, results leading:

Row | IC50 [µM] | Compound
52 | 10 to 50 | CCOC(=O)Cc1cn(Cc2csc3ccc(OC(F)(F)F)cc23)c2cc(-c3cc([N+](=O)[O-])cc([N+](=O)[O-])c3)ccc12 [Example 717]
53 | 10 to 50 | CCOC(=O)Cc1cn(Cc2csc3ccc(OC(F)(F)F)cc23)c2cc(-c3cc(N)cc(N)c3)ccc12 [Example 718]
54 | 10 to 50 | Nc1cc(N)cc(-c2ccc3c(CC(=O)O)cn(Cc4csc5ccc(OC(F)(F)F)cc45)c3c2)c1 [Example 719]
55 | < 10 | CCc1sc2ccc(Cl)cc2c1Cn1cc(CC(=O)O)c2ccc(-c3cc(N)cc(N)c3)cc21 [Example 721]
56 | 10 to 50 | COc1cc(Cl)cc2c(Cn3cc(CC(=O)O)c4ccc(-c5cc(N)cc(N)c5)cc43)csc12 [Example 722]
57 | < 10 | Nc1cc(N)cc(-c2ccc3c(CC(=O)O)cn(Cc4csc5cc(Cl)c(F)cc45)c3c2)c1 [Example 723]
58 | 10 to 50 | Nc1cc(N)cc(-c2ccc3c(CC(=O)O)cn(Cc4csc5c(Cl)c(Cl)ccc45)c3c2)c1 [Example 724]
59 | 10 to 50 | Nc1cc(N)cc(-c2ccc3c(CC(=O)O)cn(Cc4csc5c(Cl)cccc45)c3c2)c1 [Example 725]
60 | < 10 | Nc1cc(N)cc(-c2ccc3c(CC(=O)O)cn(Cc4csc5c(Cl)cc(F)cc45)c3c2)c1 [Example 726]
61 | < 10 | Nc1cc(N)cc(-c2ccc3c(CC(=O)O)cn(Cc4csc5cccc(Cl)c45)c3c2)c1 [Example 727]
62 | < 10 | Nc1cc(N)cc(-c2ccc3c(CC(=O)O)cn(Cc4csc5cc(Cl)ccc45)c3c2)c1 [Example 728]

Same assay, conditions: Table 37, compounds made using Scheme 55; read-out: IC50 Activity

Row | IC50 [µM] | Compound
63 | > 50 | COc1cccc(-c2ccc3c(CC(=O)O)cn(Cc4csc5ccc(Cl)cc45)c3c2)c1 [Example 746]
64 | > 50 | COc1ccccc1-c1ccc2c(CC(=O)O)cn(Cc3csc4ccc(Cl)cc34)c2c1 [Example 747]
65 | > 50 | Cc1ccc(-c2ccc3c(CC(=O)O)cn(Cc4csc5ccc(Cl)cc45)c3c2)cc1 [Example 751]
66 | 10 to 50 | Cc1cccc(-c2ccc3c(CC(=O)O)cn(Cc4csc5ccc(Cl)cc45)c3c2)c1 [Example 752]

Same assay, conditions: Table 38, compounds made using Scheme 56, Scheme 57 and Scheme 61; read-out: IC50 Activity

Row | IC50 [µM] | Compound
67 | 10 to 50 | CN(C=O)c1cc(Cl)cc2c(Cn3cc(CC(=O)O)c4ccc(-c5cc(N)cc(N)c5)cc43)csc12 [Example 729]
68 | 10 to 50 | CN(c1cc(Cl)cc2c(Cn3cc(CC(=O)O)c4ccc(-c5cc(N)cc(N)c5)cc43)csc12)S(C)(=O)=O [Example 730]
69 | < 10 | CCNc1cc(Cl)cc2c(Cn3cc(CC(=O)O)c4ccc(-c5cc(N)cc(N)c5)cc43)csc12 [Example 731]
70 | < 10 | CCN(C)c1cc(Cl)cc2c(Cn3cc(CC(=O)O)c4ccc(-c5cc(N)cc(N)c5)cc43)csc12 [Example 732]
